Source: patent US20080033017A1, “COMPOSITIONS FOR ENHANCED ACARICIDAL ACTIVITY” (priority 2000, published 2008)
“And” between values parts separate entries of the source, which are not always exact repeats. Identical values can stand only once.

What was measured:
D. VARIABILIS = experiment: Comparative tick control on dogs, D. variabilis, percent control; format: in vivo, Dermacentor variabilis; design: concentration or dose not given beside the values
Source text: (§1) The purpose of this study was to was to determine comparative flea and tick control over a 30 day interval of a combination application of a pyrethroid and a chloronicotinyl insecticide applied dermally to dogs. This combination was compared with permethrin alone, imidacloprid alone, fipronil and selamectin. The latter two compounds are present in products that currently carry claims for both tick and flea control
(§2) Thirty-six dogs were divided into six groups of 6 dogs per group. Each dog received a single topically-applied treatment of the either “Kiltix”, a product available from Bayer Corporation containing 45% w/w permethrin, Advantage®, a product available from Bayer Corporation containing 9.1% w/w imidacloprid, a combination of Kiltix and Advantage containing 45% w/w permethrin+9.1% w/w imidacloprid, Top Spot), a product available from Merial containing 9.7% fipronil or Revolution®, a product available from Pfizer Inc. containing 12% w/v selamectin in accordance with the appropriate dose and label instructions for the various product applications. Control dogs remained untreated. All products were provided in the commercial unit dose applicator tubes.
(§3) The dogs were bathed with a mild non-medicated shampoo and thoroughly combed to remove any existing fleas or ticks 7 to 14 days prior to treatment. The dogs were infested with 100 unfed adult ticks (50 Dermacentor variabilis and 50 Rhipiciphalus sanguineus) and 100 unfed adult fleas on Day −3. Live fleas and ticks were counted on Day −1. The dogs were ranked according to total pretreatment live tick counts from highest to lowest. The 36 dogs with the highest counts were selected for the study. Each consecutive group of 6 dogs comprised one block. Treatment was randomly assigned within each block of dogs.
(§4) Each dog was examined visually for fleas and ticks on Days 1, 7, 14, 21, and 28 following treatment. The hair was parted with the thumbs and fingers to count fleas and ticks. Live tick counts were recorded by species. Live ticks only were counted visually on Days 2, 8, 15, 22, and 29. The dogs were combed on Days 3, 9, 16, 23, and 30. All remaining live fleas and ticks were counted and removed.

[1] = system: both species of ticks (D. variabilis and R. sanguineus); experiment: Tick control on dogs, both species together; format: in vivo, Dermacentor variabilis and Rhipicephalus sanguineus; settings: both tick species
Source text: as §1
Thirty-six dogs were divided into six groups of 6 dogs per group. […]
The dogs were bathed with a mild non-medicated shampoo and thoroughly combed to remove any existing fleas or ticks 7 to 14 days prior to treatment. […] Live fleas and ticks were counted on Day −1. […]
Each dog was examined visually for fleas and ticks on Days 1, 7, 14, 21, and 28 following treatment. […] Live tick counts were recorded by species. Live ticks only were counted visually on Days 2, 8, 15, 22, and 29. […] All remaining live fleas and ticks were counted and removed.

R. SANGUINEUS = experiment: Comparative tick control on dogs, R. sanguineus, percent control; format: in vivo, Rhipicephalus sanguineus; design: Percent control R. sanguineus: concentration or dose not given beside the values
Source text: as §1, §2, §3, §4

FLEAS (Siphoneptera) = experiment: Comparative flea control on dogs, percent control; format: in vivo; design: Percent control fleas: concentration or dose not given beside the values
Source text: as §1, §2, §3, §4

[2] = Study Day 1, single topical treatment
[3] = Study Day 2, single topical treatment
[4] = Study Day 3, single topical treatment
[5] = Study Day 7, single topical treatment
[6] = Study Day 8, single topical treatment
[7] = Study Day 9, single topical treatment
[8] = Study Day 14, single topical treatment
[9] = Study Day 15, single topical treatment
[10] = Study Day 16, single topical treatment
[11] = Study Day 21, single topical treatment
[12] = Study Day 22, single topical treatment
[13] = Study Day 23, single topical treatment
[14] = Study Day 28, single topical treatment
[15] = Day 1, single topical treatment
[16] = Day 3, single topical treatment
[17] = Day 7, single topical treatment
[18] = Day 9, single topical treatment
[19] = Day 14, single topical treatment
[20] = Day 16, single topical treatment
[21] = Day 21, single topical treatment
[22] = Day 23, single topical treatment
[23] = Day 28, single topical treatment
[24] = Day 30, single topical treatment

| Structure (SMILES) | Percent control D. variabilis (D. VARIABILIS; [2]) | Percent control D. variabilis (D. VARIABILIS; [3]) | Percent control D. variabilis (D. VARIABILIS; [4]) [%] | Percent control D. variabilis (D. VARIABILIS; [5]) [%] | Percent control D. variabilis (D. VARIABILIS; [6]) [%] | Percent control D. variabilis (D. VARIABILIS; [7]) | Percent control D. variabilis (D. VARIABILIS; [8]) [%] | Percent control D. variabilis (D. VARIABILIS; [9]) [%] | Percent control D. variabilis (D. VARIABILIS; [10]) [%] | Percent control D. variabilis (D. VARIABILIS; [11]) [%] | Percent control D. variabilis (D. VARIABILIS; [12]) [%] | Percent control D. variabilis (D. VARIABILIS; [13]) [%] | Percent control D. variabilis (D. VARIABILIS; [14]) [%] | Percent control R. sanguineus (R. SANGUINEUS; [2]) [%] | Percent control R. sanguineus (R. SANGUINEUS; [3]) [%] | Percent control R. sanguineus (R. SANGUINEUS; [4]) | Percent control R. sanguineus (R. SANGUINEUS; [5]) [%] | Percent control R. sanguineus (R. SANGUINEUS; [6]) [%] | Percent control R. sanguineus (R. SANGUINEUS; [7]) [%] | Percent control R. sanguineus (R. SANGUINEUS; [8]) [%] | further results |
| --- | --- | --- | --- | --- | --- | --- | --- | --- | --- | --- | --- | --- | --- | --- | --- | --- | --- | --- | --- | --- | --- |
| N#Cc1nn(-c2c(Cl)cc(C(F)(F)F)cc2Cl)c(N)c1[S+]([O-])C(F)(F)F (stereo not drawn) [Fipronil, fipronil] | *92.9% | *100% | 100 | 100 | 100 | 100% | 98.7 | 100 | 100 | 92.7 | 98.7 | 100 | 69.7 | 96.3 | 100 | 100% | 100 | 100 | 100 | 99.4 | onset of tick kill (in words) [1]: early kill, similar to that of the combination of permethrin and imidacloprid; Percent control R. sanguineus (R. SANGUINEUS; [9]): 100%; Percent control R. sanguineus (R. SANGUINEUS; [10]): 99.4%; Percent control R. sanguineus (R. SANGUINEUS; [11]): 86.0%; Percent control R. sanguineus (R. SANGUINEUS; [12]): 100%; Percent control R. sanguineus (R. SANGUINEUS; [13]): 100%; Percent control R. sanguineus (R. SANGUINEUS; [14]): 65.3%; flea kill compared with imidacloprid or the combination (in words) (FLEAS (Siphoneptera)): rate of flea kill equal to that of imidacloprid or the combination of imidacloprid and permethrin; Percent control fleas (FLEAS (Siphoneptera); [15]): 100%; Percent control fleas (FLEAS (Siphoneptera); [16]): 100%; Percent control fleas (FLEAS (Siphoneptera); [17]): 100%; Percent control fleas (FLEAS (Siphoneptera); [18]): 100%; Percent control fleas (FLEAS (Siphoneptera); [19]): 100%; Percent control fleas (FLEAS (Siphoneptera); [20]): 100%; Percent control fleas (FLEAS (Siphoneptera); [21]): 100%; Percent control fleas (FLEAS (Siphoneptera); [22]): 100%; Percent control fleas (FLEAS (Siphoneptera); [23]): 100%; Percent control fleas (FLEAS (Siphoneptera); [24]): 100%; Percent control fleas (FLEAS (Siphoneptera); Day −1 (pretreatment count)): 22.4% |
| O=[N+]([O-])N=C1NCCN1Cc1ccc(Cl)nc1 [Imidacloprid, 1-[(6-chloro-3-pyridinyl)methyl]-N-nitro-2-imidazolidinimine] | −12.0% | 16.9% | 30.9 | 32.5 | 35.3 | 39.4% | 50.3 | 66.4 | 68.4 | 50.2 | 40.1 | 50.2 | 38.8 | 15.5 | 42.4 | 35.9% | 67.2 | 72.0 | 66.6 | 53.5 | Percent control R. sanguineus (R. SANGUINEUS; [9]): 58.2%; Percent control R. sanguineus (R. SANGUINEUS; [10]): 54.0%; Percent control R. sanguineus (R. SANGUINEUS; [11]): 41.5%; Percent control R. sanguineus (R. SANGUINEUS; [12]): 18.9%; Percent control R. sanguineus (R. SANGUINEUS; [13]): −5.3%; Percent control R. sanguineus (R. SANGUINEUS; [14]): 39.1%; Percent control fleas (FLEAS (Siphoneptera); [15]): 100%; Percent control fleas (FLEAS (Siphoneptera); [16]): 100%; Percent control fleas (FLEAS (Siphoneptera); [17]): 100%; Percent control fleas (FLEAS (Siphoneptera); [18]): 100%; Percent control fleas (FLEAS (Siphoneptera); [19]): 100%; Percent control fleas (FLEAS (Siphoneptera); [20]): 100%; Percent control fleas (FLEAS (Siphoneptera); [21]): 100%; Percent control fleas (FLEAS (Siphoneptera); [22]): 99.6%; Percent control fleas (FLEAS (Siphoneptera); [23]): 98.6%; Percent control fleas (FLEAS (Siphoneptera); [24]): 99.4%; Percent control fleas (FLEAS (Siphoneptera); Day −1 (pretreatment count)): 5.4%; killing of fleas (in words) (FLEAS (Siphoneptera); from day 1 through day 30): killed essentially all of the fleas |
| CO[C@H]1C[C@H](O[C@@H]2/C(C)=C/C[C@@H]3C[C@@H](C[C@]4(CC[C@H](C)[C@@H](C5CCCCC5)O4)O3)OC(=O)[C@@H]3C=C(C)/C(=N/O)[C@H]4OC/C(=C\C=C\[C@@H]2C)[C@]43O)O[C@@H](C)[C@@H]1O [Selamectin, selamectin] | 26.2% | 46.7% | 70.8 | 23.1 | 61.2 | 83% and 83.2% | 16.6 | 32.7 | 46.1 | 2.7 | −0.6 | 24.7 | 0.1 | −13.1 | 48.5 | 87% and 87.4% | 83.9 | 83.6 | 95.6 | 21.5 | Percent control R. sanguineus (R. SANGUINEUS; [9]): 46.0%; Percent control R. sanguineus (R. SANGUINEUS; [10]): 70.9%; Percent control R. sanguineus (R. SANGUINEUS; [11]): −7.0%; Percent control R. sanguineus (R. SANGUINEUS; [12]): −2.2%; Percent control R. sanguineus (R. SANGUINEUS; [13]): 8.2%; Percent control R. sanguineus (R. SANGUINEUS; [14]): −16.0%; tick killing of R. sanguineus (in words) (R. SANGUINEUS; by day 16 post application): negligent; flea kill compared with imidacloprid or the combination (in words) (FLEAS (Siphoneptera)): not as effective as either imidacloprid or the combination of imidacloprid and permethrin; Percent control fleas (FLEAS (Siphoneptera); [15]): 87.3%; Percent control fleas (FLEAS (Siphoneptera); [16]): 100%; Percent control fleas (FLEAS (Siphoneptera); [17]): 100%; Percent control fleas (FLEAS (Siphoneptera); [18]): 100%; Percent control fleas (FLEAS (Siphoneptera); [19]): 99.7%; Percent control fleas (FLEAS (Siphoneptera); [20]): 100%; Percent control fleas (FLEAS (Siphoneptera); [21]): 99.8%; Percent control fleas (FLEAS (Siphoneptera); [22]): 100%; Percent control fleas (FLEAS (Siphoneptera); [23]): 86%; Percent control fleas (FLEAS (Siphoneptera); [24]): 98%; Percent control fleas (FLEAS (Siphoneptera); Day −1 (pretreatment count)): 15.1%; time required to demonstrate a significant killing of fleas (FLEAS (Siphoneptera); single topical treatment): 3 days |
